Experimental data from patent US10882830B2, “Crystal form of ozanimod hydrochloride and processes for preparation therefor” (Receptos LLC, priority 2016, dated 2021).
Counter-ions that a name gives are not always drawn.

Assays:
Type in all cases: physicochemical
[1] = Solubility assessment: saturated solutions in SGF, FeSSIF and water, concentration by HPLC; conditions: thermodynamic from solid
Description: Form CS3 of ozanimod hydrochloride was suspended into SGF (Simulated gastric fluids, pH=1.8), FeSSIF (Fed state simulated intestinal fluids, pH=5.0) and water to obtain saturated solutions. After being equilibrated for 1 h, 4 h and 24 h, concentrations of the saturated solutions were measured by HPLC.

[2] = Hygroscopicity assessment by dynamic vapor sorption (DVS); conditions: 25° C.; for Weight Gain under 80% RH: DVS, about 10 mg of sample
Description: Dynamic Vapor Sorption (DVS) is measured via an SMS (Surface Measurement Systems Ltd.) intrinsic DVS. Typical Parameters for DVS test are as follows:
Gas and flow rate: N2, 200 mL/min
RH range: 0% RH to 95% RH
Dynamic vapor sorption (DVS) was applied to test hygroscopicity of Form CS3 with about 10 mg of sample. The DVS plot is substantially as depicted in FIG. 5.
Description and definition of hygroscopicity (Chinese Pharmacopoeia 2015 edition appendix Drug hygroscopic test guidelines, test at 25° C.+/−1° C., 80% RH). • deliquescent: Sufficient water is absorbed to form a liquid; • very hygroscopic: Increase in mass is equal to or greater than 15%; • hygroscopic: Increase in mass is less than 15% and equal to or greater than 2%; • slightly hygroscopic: Increase in mass is less than 2% and equal to or greater than 0.2%. • no or almost no hygroscopic: Increase in mass is less than 0.2%.

[3] = Stability assessment in constant temperature and humidity chambers, crystalline form tested by XRPD; conditions: 2 weeks
Description: Two samples of Form CS3 of ozanimod hydrochloride were placed in constant temperature and humidity chambers at 25° C./60% RH and 40° C./75% RH for 2 weeks. XRPD was used to test the crystalline form. The XRPD overlay pattern is substantially as depicted in FIG. 8 (from top to bottom: XRPD pattern of Form CS3 before and after being stored under 25° C./60% RH and 40° C./75% RH for 2 weeks). […] It can be seen that Form CS3 of ozanimod hydrochloride has good stability, which is benefit for drug storage.

[4] = Particle size distribution test (Microtrac S3500 laser particle size analyzer, wet process)
Description: The particle size distribution test in the present disclosure is acquired by the S3500 laser particle size analyzer of Microtrac. Microtrac S3500 is equipped with the SDC (Sample Delivery Controller). The test is carried out by wet process, and the dispersion medium is Isopar G The parameters are as follow:
Sample of Form CS3 was taken for particle size distribution test.

Question: With CC(C)Oc1ccc(-c2nc(-c3cccc4c3CC[C@@H]4NCCO)no2)cc1C#N [Form CS3 of ozanimod hydrochloride, ozanimod hydrochloride] as the compound, how does the solubility at 1 h ([1]; fed state simulated intestinal fluid (FeSSIF), FeSSIF pH=5.0, 1 h) read?
Answer: Its solubility at 1 h is 2100 µg/mL.

Question: What about the solubility at 4 h ([1]; fed state simulated intestinal fluid (FeSSIF), FeSSIF pH=5.0, 4 h) of the same compound?
Answer: The solubility at 4 h was 2100 µg/mL.

Question: And the solubility at 24 h ([1]; fed state simulated intestinal fluid (FeSSIF), FeSSIF pH=5.0, 24 h)?
Answer: Its solubility at 24 h is 1800 µg/mL.

Question: And the solubility at 1 h ([1]; simulated gastric fluid (SGF), simulated gastric fluid, SGF pH=1.8, 1 h)?
Answer: Its solubility at 1 h is 200 µg/mL.

Question: What about the solubility at 4 h ([1]; simulated gastric fluid (SGF), simulated gastric fluid, SGF pH=1.8, 4 h) of the same compound?
Answer: The solubility at 4 h was 200 µg/mL.

Question: What about the solubility at 24 h ([1]; simulated gastric fluid (SGF), simulated gastric fluid, SGF pH=1.8, 24 h) of the same compound?
Answer: The solubility at 24 h was 200 µg/mL.

Question: And the solubility at 1 h ([1]; water, H2O, 1 h)?
Answer: The solubility at 1 h was 1100 µg/mL.

Question: What about the solubility at 4 h ([1]; water, H2O, 4 h) of the same compound?
Answer: The solubility at 4 h was 1400 µg/mL.

Question: And the solubility at 24 h ([1]; water, H2O, 24 h)?
Answer: Its solubility at 24 h is 1300 µg/mL.

Question: What about the “Hygroscopicity class according to the definition of hygroscopicity” value ([2]; Chinese Pharmacopoeia 2015 definition, 80% RH) of the same compound?
Answer: The value was “hygroscopic”.

Question: What about the “Weight Gain under 80% RH” value ([2]; hydrochloride) of the same compound?
Answer: The value was 2.50%.

Question: And the “Weight Gain under 80% RH” value ([2]; listed as Form CS3, hydrochloride)?
Answer: The value was 2.50%.

Question: And the “Crystalline form change by XRPD after storage” value ([3]; 25° C./60% RH)?
Answer: The value was “No form change”.

Question: What about the “Crystalline form change by XRPD after storage” value ([3]; 40° C./75% RH) of the same compound?
Answer: The value was “No form change”.

Question: What about the “MV (average particle size calculated by volume)” value ([4]; dispersion medium Isopar G, average of 3 runs) of the same compound?
Answer: Its value is 131.8 μm.

Question: What about the average particle size ([4]; unit not given) of the same compound?
Answer: Its average particle size is 131.8.

Question: What about the D10 ([4]; volume distribution, Isopar G) of the same compound?
Answer: Its D10 is 19.94 μm.

Question: And the D50 ([4]; volume distribution, Isopar G)?
Answer: Its D50 is 100.5 μm.

Question: What about the D90 ([4]; volume distribution, Isopar G) of the same compound?
Answer: Its D90 is 287.0 μm.
